Measured values reported in publication PMC11286772, “Structural basis of antagonist selectivity in endothelin receptors” (Cell Discovery, 2024).
Residue numbers refer to the chain shown, from its start. Like-named read-outs stand apart in the source and are kept apart here.

What was measured:
Type in all cases: cell-based
ETA WT = target: T1, ETA WT (Homo sapiens, UniProt P25101); assay: Calcium mobilization assay, antagonist mode (ET-1 stimulated), CHO-K1 cells
T1 construct: expressed in transfected cells; host or cells: CHO-K1
T1 sequence (P25101 21-427): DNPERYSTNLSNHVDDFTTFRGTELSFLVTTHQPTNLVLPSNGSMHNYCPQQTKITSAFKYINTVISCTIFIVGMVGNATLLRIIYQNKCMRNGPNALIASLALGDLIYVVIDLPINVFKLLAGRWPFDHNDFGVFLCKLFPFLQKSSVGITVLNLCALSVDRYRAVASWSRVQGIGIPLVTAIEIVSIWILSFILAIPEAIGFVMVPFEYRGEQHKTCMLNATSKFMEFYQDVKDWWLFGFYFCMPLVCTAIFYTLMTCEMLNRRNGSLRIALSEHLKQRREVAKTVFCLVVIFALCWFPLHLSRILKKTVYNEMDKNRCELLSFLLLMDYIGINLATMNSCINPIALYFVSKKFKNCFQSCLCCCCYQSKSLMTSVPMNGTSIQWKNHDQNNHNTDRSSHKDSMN
Procedure: (§1) CHO-K1 cells were cultured in Ham’s F-12K (Kaighn’s) Medium (Gibco-Thermo Fisher Scientific) supplemented with 10% (v/v) fetal bovine serum (FBS; Gibco-Thermo Fisher Scientific), and 100 U/mL Penicillin-Streptomycin (Gibco-Thermo Fisher Scientific) in a humidified incubator at 37 °C with 5% CO2. Cells were seeded in 6-cm dishes overnight; when the density reached 60%–80%, the cells were transferred to F12K Medium supplemented with 10% FBS and transfected with 1.5 μg DNA encoding the ETA WT or mutants or 3 μg DNA encoding the ETB WT or mutants using TransIT2020 (Mirus Biosciences). The next day, transfected cells were harvested from the plate using Versene buffer (Gibco-Thermo Fisher Scientific) and seeded into black-sided, clear-bottomed 384-well plates (Agilent) at a density of 1,5000 cells per well. After 20 h, the 1% dFBS medium was removed, and cells were loaded with 20 μL/well of 1× Calcium 6 dye (Molecular Devices) and incubated at 37 °C for 1 h in the dark. […] All data were analyzed using GraphPad Prism 8 and the data are from at least three independent replicate experiments. All plots are shown as means ± SEM. Data were determined using one-way ANOVA followed by Dunnett’s multiple test compared with WT. The top value was normalized to 100% and the bottom value was normalized to 0% for the final presentation. Nonlinear curve fit was performed using a four-parameter logistic equation (log (agonist vs response) or log (inhibitor vs response)).

ETA L259^5.42A = target: T2, ETA L259^5.42A (Homo sapiens, UniProt P25101, L259A); assay: Calcium mobilization assay, antagonist mode
T2 construct: expressed in transfected cells; host or cells: CHO-K1
T2 sequence (P25101 21-427 L259A): T1 sequence (P25101 21-427) with L239A
Procedure: as §1

ETA Y129^2.53A = target: T3, ETA Y129^2.53A (Homo sapiens, UniProt P25101, Y129A); assay: Calcium mobilization assay, antagonist mode
T3 construct: expressed in transfected cells; host or cells: CHO-K1
T3 sequence (P25101 21-427 Y129A): T1 sequence (P25101 21-427) with Y109A
Procedure: as §1

ETA Y129^2.53H = target: T4, ETA Y129^2.53H (Homo sapiens, UniProt P25101, Y129H); assay: Calcium mobilization assay, antagonist mode
T4 construct: expressed in transfected cells; host or cells: CHO-K1
T4 sequence (P25101 21-427 Y129H): T1 sequence (P25101 21-427) with Y109H
Procedure: as §1

ETA R326^6.55A = target: T5, ETA R326^6.55A (Homo sapiens, UniProt P25101, R326A); assay: Calcium mobilization assay, antagonist mode
T5 construct: expressed in transfected cells; host or cells: CHO-K1
T5 sequence (P25101 21-427 R326A): T1 sequence (P25101 21-427) with R306A
Procedure: as §1

ETA F161^3.28A = target: T6, ETA F161^3.28A (Homo sapiens, UniProt P25101, F161A); assay: Calcium mobilization assay, antagonist mode
T6 construct: expressed in transfected cells; host or cells: CHO-K1
T6 sequence (P25101 21-427 F161A): T1 sequence (P25101 21-427) with F141A
Procedure: as §1

ETA L322^6.51A = target: T7, ETA L322^6.51A (Homo sapiens, UniProt P25101, L322A); assay: Calcium mobilization assay, antagonist mode
T7 construct: expressed in transfected cells; host or cells: CHO-K1
T7 sequence (P25101 21-427 L322A): T1 sequence (P25101 21-427) with L302A
Procedure: as §1

ETA Y263^5.46A = target: T8, ETA Y263^5.46A (Homo sapiens, UniProt P25101, Y263A); assay: Calcium mobilization assay, antagonist mode
T8 construct: expressed in transfected cells; host or cells: CHO-K1
T8 sequence (P25101 21-427 Y263A): T1 sequence (P25101 21-427) with Y243A
Procedure: as §1

ETA Y129^2.53F = target: T9, ETA Y129^2.53F (Homo sapiens, UniProt P25101, Y129F); assay: Calcium mobilization assay, antagonist mode
T9 construct: expressed in transfected cells; host or cells: CHO-K1
T9 sequence (P25101 21-427 Y129F): T1 sequence (P25101 21-427) with Y109F
Procedure: as §1

ETB H150^2.53Y = target: T10, ETB H150^2.53Y (Homo sapiens, UniProt P24530, H150Y); assay: Calcium mobilization assay, antagonist mode
T10 construct: expressed in transfected cells; host or cells: CHO-K1
T10 sequence (P24530 27-442 H150Y): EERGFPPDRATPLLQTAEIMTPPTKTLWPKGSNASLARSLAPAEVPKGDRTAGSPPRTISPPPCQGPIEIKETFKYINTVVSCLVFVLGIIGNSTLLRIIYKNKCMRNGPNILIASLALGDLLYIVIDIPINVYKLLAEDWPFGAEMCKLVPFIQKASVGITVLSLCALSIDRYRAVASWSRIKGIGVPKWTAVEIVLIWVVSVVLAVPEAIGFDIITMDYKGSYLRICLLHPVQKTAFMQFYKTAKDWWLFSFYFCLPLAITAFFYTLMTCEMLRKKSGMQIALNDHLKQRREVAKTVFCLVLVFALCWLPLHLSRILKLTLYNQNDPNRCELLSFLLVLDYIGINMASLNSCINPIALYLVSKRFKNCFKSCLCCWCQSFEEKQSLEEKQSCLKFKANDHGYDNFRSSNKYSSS
Procedure: as §1

[1] = target: T11, ETB V177^3.28F+H150^2.53Y (Homo sapiens, UniProt P24530, H150Y/V177F); assay: Calcium mobilization assay, antagonist mode
T11 construct: expressed in transfected cells; host or cells: CHO-K1
T11 sequence (P24530 27-442 H150Y/V177F): T10 sequence (P24530 27-442 H150Y) with V151F
Procedure: as §1

[2] = CHO-K1 cells, n = 5, read-out: IC50, inhibition activity on ETA in calcium mobilization assay
[3] = read-out: pIC50±S.E.M. (converted)

Compound | IC50 (ETA WT; [2]) [nM] | IC50 (ETA WT; [3]) [nM] | IC50 (ETA L259^5.42A) [µM] | IC50 (ETA Y129^2.53A) [nM] | IC50 (ETA Y129^2.53H) [nM] | IC50 (ETA R326^6.55A) [µM] | IC50 (ETA F161^3.28A) [nM] | IC50 (ETA L322^6.51A) [nM] | IC50 (ETA Y263^5.46A) [nM] | IC50 (ETA Y129^2.53F) [nM] | IC50 (ETB H150^2.53Y) [µM] | IC50 [1] [µM]
COC(c1ccccc1)(c1ccccc1)[C@H](Oc1nc(C)cc(C)n1)C(=O)O [ambrisentan] | 0.6 | 0.389 | 15.5 | 204 | 575 | 7.94 | 89.1 | 575 | 813 | 2.34 | – | –
COc1nc(C)cnc1NS(=O)(=O)c1cccnc1-c1ccc(-c2nnco2)cc1 [zibotentan] | – | – | – | – | – | – | – | – | – | – | 56.2 | 33.1
CCCNS(=O)(=O)Nc1ncnc(OCCOc2ncc(Br)cn2)c1-c1ccc(Br)cc1 [macitentan, N-[5-(4-bromophenyl)-6-[2-[(5-bromo-2-pyrimidinyl)oxy]ethoxy]-4-pyrimidinyl]-N’-propylsulfamide] | 1.3 | 1.17 | 0.234 | 1020 | 891 | 0.0363 | 17.8 | 347 | 15.5 | 1.2 | – | –
